{"source": "patent US20240335464A1", "about": "“ADMINISTRATION OF STING AGONIST, CHECKPOINT INHIBITORS, AND RADIATION” (Takeda Pharmaceutical Company Limited, priority 2020, published 2024)", "test_system": "B16F10 ova melanoma tumor", "assay": "Study 5: B16F10-Ova subcutaneous tumor model, anti-tumor efficacy", "type": "in vivo, female C57Bl/6 mice", "settings": "for GRI (%) (Day 10): vs vehicle", "description": "Study 5: B16F10-Ova is a cell line derived from B16F10 melanoma that expresses chicken ovalbumin. Seven-week-old female C57Bl/6 mice (Jackson Labs, Maine) were inoculated subcutaneously with 0.04×10^6 B16F10 ova tumor cells and monitored for tumor growth. Once the tumors reached an average of 100-250 mm^3, animals were irradiated with either mock irradiation or 16 Gy of focal beam irradiation (Study Day 0). Animals were then dosed intravenously with either vehicle (PBS) or 0.25 mg/kg of Compound No. 14 on a Q3Dx3 scheduled beginning on Study Day 1. Animals were monitored for tumor volumes and body weight changes twice weekly throughout the study once they reached their humane endpoint. GRI was calculated on the last day with animals remaining in the vehicle group (Study Day 10).\nStudy 5: A 5 mg/mL stock solution of Compound No. 14 was formulated in PBS at the final concentration of 0.0667 mg/mL and administered intravenously (IV). Final doses received were 0.25 mg/kg. […] Compound No. 14 was administered on a Q3D schedule for 3 doses in single agent treatment group and in combination treatment groups beginning on Day 1. Dose formulation of Compound No. 14 was prepared once and utilized for dosing on each treatment day.\nStudies 4 and 5: Radiation treatment for Studies 4 and 5 were performed using focal beam radiation with volumentric image guidance from computer tomography scans on the SmART (Small animal image-guided radiotherapy) platform (Precision XRay Inc., North Branford, CT). Animals received 4.52 Gy/min of radiation and approximately 1.8 min was needed to reach 8 Gy dose delivery (Study 4) or […] was needed to reach 16 Gy dose delivery (Study 5). Animals were anesthetized during imaging and radiation treatment using 1-2% isoflurane.\nGrowth Rate Inhibition: The differences in the tumor growth trends over time between pairs of treatment groups were assessed by fitting each animal's data to a simple exponential growth model and comparing the mean growth rates of the two groups, as described in more detail below. The difference in the growth rates was summarized by the GRI, which is the reduction in growth rate experienced by the treatment group relative to that of the reference group, expressed as a fraction of the vehicle growth rate.\nμT and μC are the mean tumor growth rates for the treatment and reference groups, respectively. μV is the mean tumor growth rate for the vehicle group, which in most cases is the same as the reference group.\nA GRI greater than 100% is interpreted as tumor regression when the vehicle group is the same as the reference group. A negative value of the GRI means that the tumors in the treatment group grew faster than the tumors in the reference group. Statistical significance was determined using an unpaired t-test.\nTumor Growth Rate Computation: Low tumor volumes can cause problems with the data analysis, so all measurements below 25 cubic mm (including 0 values) were excluded from the analysis. After this exclusion step, the tumor volume was assumed to follow an exponential growth model. More specifically, for a given animal and treatment group,\nwhere Vi is the tumor volume at the i^th time point. Here, a is the initial log volume, b is the tumor growth rate, and t1 is the measurement time in days. εi is the residual error term, which was assumed to be uncorrelated and drawn from a normal distribution.\nThis model was fit separately for each animal within each treatment group. If an animal was sacrificed or died early, but at least two unique time points were measured (including baseline), then the data up to that point was used to estimate the growth rate. If the animal had measurements at less than two time points, then the animal was automatically excluded from the analysis.\nIn rare cases, the estimated growth rate for one or more animals might be very different from the other animals within the same group. […]", "key": {"[1]": {"settings": "TG02 Compound No.14 0.25 mg/kg Q3Dx3 IV, single agent"}, "[2]": {"settings": "TG04 Compound No.14 0.25 mg/kg Q3Dx3 IV + radiation 16 Gy, through Day 10"}}, "data": [{"smiles": "Nc1ncnc2c1ncn2[C@@H]1O[C@@H]2COP(=O)(S)O[C@@H]3[C@H](O)[C@@H](COP(=O)(S)O[C@H]2[C@H]1F)O[C@H]3n1cc(F)c2c(=O)[nH]cnc21", "note": "(stereo partly drawn) [Compound No. 14]", "values": [{"measurement": "Number of Animals Removed", "setting": "[1]", "result": 4}, {"measurement": "GRI (%) (Day 10)", "setting": "[1]", "result": 11, "unit": "%"}, {"measurement": "Number of Animals Removed", "setting": "TG04 Compound No.14 0.25 mg/kg Q3Dx3 IV + radiation 16 Gy", "result": 0}, {"measurement": "GRI (%) (Day 10)", "setting": "TG04 Compound No.14 0.25 mg/kg Q3Dx3 IV + radiation 16 Gy (Day 0)", "result": 67, "unit": "%"}, {"measurement": "Combination Assessment", "setting": "[2]", "result": "Additive"}, {"measurement": "Synergy Score %", "setting": "[2]", "result": "−21", "unit": "%"}]}]}
